From patent US9486425B2 (NESTEC S.A., priority 2012, dated 2016)

How the values were obtained:
[1] = test system: Nrf2; test: Nrf2 reporter assay (ARE-luciferase, AREc32 cells); type: cell-based; details: 24 h, dose range 0 to 200 μM (FIG. 3)
Experimental: Activation of Nrf2 was measured using an Nrf2 reporter assay. This assay is based on the AREc32 cell line, from CRX biosciences (Dundee, Scotland), a stably transfected MCF7 (breast adenocarcinoma) cell line that contains a luciferase gene construct under the control of the ARE. […] Luciferase activity is determined using a luciferase kit form Promega (Madison, Wis.). The luciferase activity is proportional to the activation of Nrf2.
For each run the luciferase activities, measured in Relative Light Units (RLU), of all the wells were normalized with the mean of the luciferase activity of the cells only of all the plates. Among all the samples tested the normalization procedure was found not to affect the data and this observation permits the comparison of samples measured in different runs.
For each sample the Nrf2 activation was calculated as follows: […]
The luciferase content per sample allows a semi quantification of the Nrf2 activation by reflecting the amount of the Nrf2 activating molecule. […]

[2] = test system: AREc32 cells; test: AREc32 cell viability (ATP quantification, Cell Titer-Glo); type: cell-based; details: 24 h
Experimental: To determine the Nrf2 activation the samples were tested on AREc32 cells (seeded in 96 well plates) using 10 independent dilutions (1/2, 1/4, 1/6, 1/10, 1/15, 1/20, 1/25, 1/30, 1/40 and 1/50) and incubated for 24 hours at 37° C. in a 5% CO2/air incubator. The luciferase activity and the cell viability (ATP measurements) were determined using the Luciferase and Cell Titer-Glo kits from Promega.
The cell viability was also measured using a cell Titer-Glo kit (ATP quantification).

[3] = test system: Heme oxygenase 1 (HO-1); test: mRNA expression in hepatocytes (qPCR): heme oxygenase 1; type: cell-based; details: rat hepatocytes, 24 h, dose range (FIG. 5)
Experimental: (§1) Hepatocytes were isolated from Sprague-Dawley male rats (190-240 g) by liver perfusion. […] After overnight incubation, the medium was removed and 2.5 ml of fresh medium containing the test substances was added. The dishes were incubated for 24 h at 37° C. in a 5% CO2/air incubator. Cell lysates for the RNA extraction were obtained by adding 400 μl of RNA lysis buffer (RA-1 with 1% v/v β-mercaptoethanol) to the cells and vigorously mixed (vortex). Total RNA was extracted from the cell lysates according manufacturer's instructions (Nucleospin RNA2 kit, Macherey-Nagel, Düren, Germany) with minor changes: 20 min of DNASE treatment and 60 μl of elution volume. Total RNAs were quantified using Ribogren kit (Molecular probes) and the quality was evaluated by capillary electrophoresis using Bionalyzer (Agilent). Reverse transcription reactions were performed with the Multiscribe reverse transcriptase enzyme in the presence of random hexamers primers (Reverse Transcription Reagent from Applied Biosystems). Gene expression quantification was performed using pre-designed TaqMan probes (Applied Biosystems). Each qPCR reaction was done in technical duplicates on 50 ng of cDNA. The arithmetic mean of two housekeeping genes (GAPDH and β-Actin) was used for normalization. The mRNA gene expression calculations are based on the ΔΔCt method: […] [table]

[4] = test system: NAD(P)H dehydrogenase quinone (Nqo1); test: mRNA expression in hepatocytes (qPCR): NAD(P)H dehydrogenase quinone; type: cell-based; details: rat hepatocytes, 24 h, dose range (FIG. 5)
Experimental: as §1

[5] = test system: Glutamate cysteine ligase, catalytic subunit (Gclc); test: mRNA expression in hepatocytes (qPCR): glutamate cysteine ligase catalytic subunit; type: cell-based; details: rat hepatocytes, 24 h, dose range (FIG. 5)
Experimental: as §1

[6] = test system: Glutathione-S-transferase, pi 1 (Gstp1); test: mRNA expression in hepatocytes (qPCR): glutathione-S-transferase; type: cell-based; details: rat hepatocytes, 24 h, dose range (FIG. 5)
Experimental: as §1

[7] = test system: UDP-glucuronosyltransferase (UGT); test: mRNA expression in hepatocytes (qPCR): UDP-glucuronosyltransferase; type: cell-based; details: rat hepatocytes, 24 h, dose range (FIG. 5)
Experimental: as §1

[8] = test system: Glutathione peroxidase 1 (Gpx1); test: mRNA expression in hepatocytes (qPCR): glutathione peroxidase 1; type: cell-based; details: rat hepatocytes, 24 h, dose range (FIG. 5)
Experimental: as §1

[9] = test system: Glutathione peroxidase 2 (Gpx2); test: mRNA expression in hepatocytes (qPCR): glutathione peroxidase 2; type: cell-based; details: rat hepatocytes, 24 h, dose range (FIG. 5)
Experimental: as §1

[10] = test system: Glutathione reductase (Gsr); test: mRNA expression in hepatocytes (qPCR): glutathione reductase; type: cell-based, rat; details: liver cells (hepatocytes)
Experimental: as §1

[11] = test system: hepatocytes; test: Hepatocyte viability (LDH measurement); type: cell-based; details: rat hepatocytes, 24 h
Experimental: Hepatocytes were isolated from Sprague-Dawley male rats (190-240 g) by liver perfusion. Cells were seeded at 2500000 cells/dish (6 cm) in 2.5 ml of Williams'E medium supplemented with 2 mM L-glutamine, 10 mM Hepes (Sigma), 1% ITS+, 1% Penicillin/Streptomycin (Sigma) and 25 nM Dexamethasone (Sigma). After overnight incubation, the medium was removed and 2.5 ml of fresh medium containing the test substances was added. The dishes were incubated for 24 h at 37° C. in a 5% CO2/air incubator.
At the end of the incubation, the cell supernatants were harvested for LDH (lactate dehydrogenase) measurement, which is an indicator of cell viability. Cells were washed once with 2.5 ml of cold PBS 1× then detached from the Petri dishes by scraping. Cells were then transferred to 1.5 ml Eppendorf tubes which were centrifuged for 1 min at 4° C. at 7000 g.

[12] = test system: NF-κB; test: NF-κB activity in HT-29 clone 34 cells (SEAP reporter and IL-8); type: cell-based, human
Experimental: Two in-vitro systems were used: human colonic cells (HT-29 clone 34) and human monocytes/macrophages (THP-1 blue cells). The human colonic adenocarcinoma HT-29 clone 34 cell line (passage 42-50) are adherent cells stably transfected with a NF-κB/SEAP reporter plasmid. They were cultured in DMEM high glucose (4.5 g/L) (Invitrogen) containing 1% of stable L-glutamine and supplemented with 10% of heat inactivated (one hour at 56° C.) Foetal Calf Serum (FCS) (Bioconcept, Allschwil, Switzerland), 1% of Penicillin/Streptomycin (Sigma) and 500 μg/ml of Geneticin (PAA, Pasching, Austria) at 37° C. in a 5% CO2/air incubator. Culture medium was renewed every two days until the cell monolayer reached ˜90% confluence. Cells were sub-cultured using 1× Trypsin/EDTA (Sigma). 10000 cells/well were seeded in 200 μl of culture medium in flat bottom white border 96 well plates (Greiner Bio One, Kremsmuenster, Austria). […] Cell culture supernatants were then collected for measurement of NF-κB activity (determination of secreted alkaline phosphatase and IL-8 production) using Phosphalight (Applied Biosystems) and IL-8 singleplex (Meso Scale, Gaithersburg, Md.) kits, respectively.

[13] = test system: HT-29 clone 34 cells; test: HT-29 clone 34 cell viability (ATP, Cell Titer-Glo); type: cell-based, human
Experimental: 10000 cells/well were seeded in 200 μl of culture medium in flat bottom white border 96 well plates (Greiner Bio One, Kremsmuenster, Austria). […] 20 μl of experimental medium containing (or not) LPS 055:B5 or rhTNF-α (100 and 10 ng/ml final, respectively) was added and the plates were incubated for 24 hours at 37° C. in a 5% CO2/air incubator.
Cell viability was determined by measuring ATP using Cell Titer-Glo kit (Promega). Briefly, remaining adherent HT-29 clone 34 cells were incubated for 10 min at room temperature under horizontal shaking (250 rpm) with 120 μl of Cell Titer-Glo reagent (pre-diluted twice in 1×PBS) and the luminescence was measured using Polarstar microplate reader (BMG, Offenburg, Germany) for 1000 ms with a gain value set to 3500.

[14] = test system: THP-1 blue cells; test: THP-1 blue cell viability (Cell Titer-Glo); type: cell-based, human
Experimental: 200000 cells/well were seeded in 100 μl of culture medium in 96 well flat bottom transparent plates. […] 20 μl of culture media containing (or not) LPS 055:B5 (Sigma) (100 ng/ml final) was added and the plates were incubated for 16 hours at 37° C. in a 5% CO2/air incubator.
Cell culture supernatants were carefully transferred to 96 well-plates for NF-κB activity measurement which is proportional to the level of secreted alkaline phosphatase. Briefly, 100 μl of supernatants were mixed with 150 μl of QuantiBlue (Invivogen) in a 96 well-plates incubated for 3 h at 37° C. before OD measurements at 620 nm with Sunrise microplate reader (Tecan, Mannedorf, Switzerland). Cell viability was determined using Cell Titer-Glo kit as described above.

CC(=O)/C=C/C(=O)O [4-oxo-2-pentenoic acid]
Nrf2 activation [1]: strongly activate Nrf2 in a dose dependent manner | doses at which viability of AREc32 cells was not affected [2]: lower than 70 μM | mRNA expression of heme oxygenase 1 [3]: increased | mRNA expression of NAD(P)H dehydrogenase quinone [4]: increased | mRNA expression of glutamate cysteine ligase catalytic subunit [5]: increased | mRNA expression of glutathione-S-transferase [6]: increased | mRNA expression of UDP-glucuronosyltransferase (UGT) [7]: increased | mRNA expression of glutathione peroxidase 1 [8]: not affected | mRNA expression of glutathione peroxidase 2 [9]: not affected | gene expression of glutathione reductase [10]: activated gene expression | cell viability (LDH measurements) [11]: not affected | dose giving the best inhibition of NF-κB activity (SEAP and IL-8) ([12]; HT-29 clone 34 cells stimulated with LPS): 50 µM | inhibition of NF-κB activity (SEAP and IL-8 secretion) ([12]; HT-29 clone 34 cells stimulated with LPS (100 ng/ml), 4 h pre-incubation, 24 h): inhibits NF-κB activity in a dose dependent manner | NF-κB activity (SEAP or IL-8) in the absence of LPS ([12]; HT-29 clone 34 cells, no LPS, doses tested 3 to 400 μM): no NF-κB activity was observed | doses showing a decrease in cell viability [13]: > 50 µM | doses toxic to cells [14]: higher than 75 μM
